Legend:
[1] = system: ALOMY; assay: Herbicidal post-emergence action 1a (greenhouse pots, visual rating); format: in vivo, Alopecurus myosuroides; conditions: rated visually about 3 weeks after treatment, 100% = plants have died, 0% = like control plants
Procedure, shortened: (§1)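 Visual scoring versus untreated plants (100% = plants dead, 0% = as control) followed roughly 3 weeks in the greenhouse after treatment. Plants grown in sandy loam pots had been sprayed on green parts at the one-leaf stage, 2–3 weeks post-sowing, with aqueous WP/EC preparations containing 0.5% additive, 600 l/ha, at 320 and/or 80 g/ha.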

[2] = system: AVEFA; assay: as above; format: in vivo, Avena fatua; conditions: Dosage 80 g/ha; rated visually about 3 weeks after treatment; 100% = plants have died, 0% = like control plants
Procedure, shortened: as §1

[3] = system: DIGSA; assay: as above; format: in vivo, Digitaria sanguinalis; conditions: rated visually about 3 weeks after treatment, 100% = plants have died, 0% = like control plants
Procedure: (§2) [table] a) Seeds of monocotyledonous and dicotyledonous weeds and crop plants are placed in sandy loam in plastic or organic plant pots, covered with soil and cultivated in a greenhouse under controlled growth conditions. 2 to 3 weeks after sowing, the test plants are treated at the one-leaf stage. The compounds of the invention, formulated in the form of wettable powders (WP) or as emulsion concentrates (EC), are then sprayed onto the green parts of the plants as aqueous suspension or emulsion with addition of 0.5% additive at a water application rate of 600 1/ha (converted). After the test plants have been kept in the greenhouse under optimum growth conditions for about 3 weeks, the activity of the preparations is rated visually in comparison to untreated controls. For example, 100% activity=the plants have died, 0% activity=like control plants. Tables A1 to A15 below show the effects of selected compounds of the general formula (I) according to Tables 1 and 2 on various harmful plants and an application rate corresponding to 320 g/ha and/or 80 g/ha, which were obtained by the experimental procedure mentioned above.

[4] = system: ECHCG; assay: as above; format: in vivo, Echinochloa crus-galli; conditions: rated visually about 3 weeks after treatment, 100% = plants have died, 0% = like control plants
Procedure, shortened: as §1

[5] = system: LOLRI; assay: as above; format: in vivo, Lolium rigidum; conditions: rated visually about 3 weeks after treatment, 100% = plants have died, 0% = like control plants
Procedure, shortened: as §1

[6] = system: ABUTH; assay: as above; format: in vivo, Abutilon theophrasti; conditions: dosage 320 g/ha, visual rating about 3 weeks after treatment
Procedure, shortened: as §1

[7] = system: AMARE; assay: as above; format: in vivo, Amaranthus retroflexus; conditions: visual rating about 3 weeks after treatment
Procedure, shortened: as §1

[8] = system: MATIN; assay: as above; format: in vivo, Matricaria inodora; conditions: visual rating about 3 weeks after treatment
Procedure, shortened: as §1

[9] = system: PHBPU; assay: as above; format: in vivo, Pharbitis purpurea; conditions: visual rating about 3 weeks after treatment
Procedure, shortened: as §1

[10] = system: POLCO; assay: as above; format: in vivo, Polygonum convolvulus; conditions: visual rating about 3 weeks after treatment
Procedure, shortened: as §1

[11] = system: STEME; assay: as above; format: in vivo, Stellaria media; conditions: rated visually about 3 weeks after treatment, 100% = plants have died, 0% = like control plants
Procedure: as §2

[12] = system: VIOTR; assay: as above; format: in vivo, Viola tricolor; conditions: visual rating about 3 weeks after treatment
Procedure, shortened: as §1

[13] = system: VERPE; assay: as above; format: in vivo, Veronica persica; conditions: visual rating about 3 weeks after treatment
Procedure, shortened: as §1

[14] = system: HORMU; assay: as above; format: in vivo, Hordeum murinum; conditions: rated visually about 3 weeks after treatment, 100% = plants have died, 0% = like control plants
Procedure: as §2

[15] = system: ALOMY; assay: Herbicidal pre-emergence action 2a (greenhouse pots, visual scoring); format: in vivo, Alopecurus myosuroides; conditions: dosage 320 g/ha, visual scoring after about 3 weeks
Procedure, shortened: (§3)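 Sow, cover with soil, spray soil surface (WP or EC in water, 0.5% additive, 600 l/ha; 320 and/or 80 g/ha), grow in greenhouse ~3 weeks, score visually in % against untreated controls.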

[16] = system: AVEFA; assay: as above; format: in vivo, Avena fatua; conditions: dosage 320 g/ha, visual scoring after about 3 weeks
Procedure, shortened: as §3

[17] = system: DIGSA; assay: as above; format: in vivo, Digitaria sanguinalis; conditions: dosage 320 g/ha, visual scoring after about 3 weeks
Procedure, shortened: as §3

[18] = system: ECHCG; assay: as above; format: in vivo, Echinochloa crus-galli; conditions: dosage 320 g/ha, visual scoring after about 3 weeks
Procedure, shortened: as §3

[19] = system: SETVI; assay: as above; format: in vivo, Setaria viridis; conditions: dosage 320 g/ha, visual scoring after about 3 weeks vs untreated controls
Procedure, shortened: as §3

[20] = system: AMARE; assay: as above; format: in vivo, Amaranthus retroflexus; conditions: dosage 320 g/ha, visual scoring after about 3 weeks vs untreated controls
Procedure, shortened: as §3

[21] = system: POLCO; assay: as above; format: in vivo, Polygonum convolvulus; conditions: dosage 320 g/ha, visual scoring after about 3 weeks vs untreated controls
Procedure, shortened: as §3

[22] = system: STEME; assay: as above; format: in vivo, Stellaria media; conditions: dosage 320 g/ha, visual scoring after about 3 weeks vs untreated controls
From the text: (§4) [table] a) Seeds of monocotyledonous and dicotyledonous weed plants and crop plants are placed in plastic or organic plant pots and covered with soil. The compounds of the invention, formulated in the form of wettable powders (WP) or as emulsion concentrates (EC), are then applied onto the surface of the covering soil as aqueous suspension or emulsion with addition of 0.5% additive at a water application rate of 600 1/ha (converted). After the treatment, the pots are placed in a greenhouse and kept under good growth conditions for the trial plants. After about 3 weeks, the effect of the preparations is scored visually in comparison with untreated controls as percentages. For example, 100% activity=the plants have died, 0% activity=like control plants. Tables B1 to B15 below show the effects of selected compounds of the general formula (I) according to Tables 1 and 2 on various harmful plants and an application rate corresponding to 320 g/ha and/or 80 g/ha, which were obtained by the experimental procedure mentioned above.

[23] = system: VIOTR; assay: as above; format: in vivo, Viola tricolor; conditions: dosage 320 g/ha, visual scoring after about 3 weeks vs untreated controls
Procedure, shortened: as §3

[24] = system: VERPE; assay: as above; format: in vivo, Veronica persica; conditions: dosage 320 g/ha, visual scoring after about 3 weeks vs untreated controls
Procedure, shortened: as §3

[25] = system: HORMU; assay: as above; format: in vivo, Hordeum murinum; conditions: dosage 320 g/ha, visual scoring after about 3 weeks vs untreated controls
From the text: as §4

[26] = system: harmful plants; assay: Herbicidal pre-emergence action 2a, summary across species; format: in vivo; conditions: Tables B1 to B15 (320 g/ha and/or 80 g/ha)
From the text: as §4, with “a)” for “[table] a)”, “plants.” for “plants. Tables B1 to B15 below show the effects of selected compounds of the general formula (I) according to Tables 1 and 2 on various harmful plants and an application rate corresponding to 320 g/ha and/or 80 g/ha, which were obtained by the experimental procedure mentioned above.”
Tables B1 to B15 below show the effects of selected compounds of the general formula (I) according to Tables 1 and 2 on various harmful plants and an application rate corresponding to 320 g/ha and/or 80 g/ha, which were obtained by the experimental procedure mentioned above.
For example, compound nos. I-07, I-08, I-11, I-12, I-13, I-16, I-17, I-20, I-36, I-37, I-39, I-45, I-46, I-48, I-52 and I-53 in the pre-emergence method have very good action (80% to 100% herbicidal activity) against harmful plants such as Alopecurus myosuroides, Amaranthus retroflexus, Digitaria sanguinalis, Lolium rigidum, Polygonum convolvulus, Setaria viridis, Veronica persica and Viola tricolor at an application rate of 0.32 kg of active substance per hectare.

[27] = system: POAAN; assay: Herbicidal post-emergence action 1b (twin sowing, 1280 g/ha); format: in vivo, Poa annua; conditions: dosage 1280 g/ha, visual rating about 3 weeks after treatment
Procedure, shortened: (§5)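 Greenhouse weed pairs (mono- with dicotyledonous) were treated 2–3 weeks after sowing, at one leaf, using an aqueous spray at 600 L/ha carrying 0.5% additive. Percent activity, judged by eye against untreated plants, was recorded roughly 3 weeks post-application.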

[28] = system: MATIN; assay: as above; format: in vivo, Matricaria inodora; conditions: dosage 1280 g/ha, visual rating about 3 weeks after treatment
Procedure, shortened: as §5

[29] = system: STEME; assay: as above; format: in vivo, Stellaria media; conditions: dosage 1280 g/ha, visual rating about 3 weeks after treatment
Procedure, shortened: as §5

[30] = system: LOLRI; assay: Herbicidal pre-emergence action 2a (greenhouse pots, visual scoring); format: in vivo, Lolium rigidum; conditions: dosage 320 g/ha, visual scoring after about 3 weeks vs untreated controls
Procedure, shortened: as §3

[31] = system: MATIN; assay: as above; format: in vivo, Matricaria inodora; conditions: dosage 320 g/ha, visual scoring after about 3 weeks vs untreated controls
Procedure, shortened: as §3

[32] = system: POAAN; assay: Herbicidal pre-emergence action 2b (doubly sown, 1280 g/ha); format: in vivo, Poa annua; conditions: doubly sown pots, dosage 1280 g/ha, visual scoring after about 3 weeks
Procedure, shortened: (§6)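 Compounds were sprayed pre-emergence as wettable powders or emulsion concentrates onto soil covering freshly sown weed seeds, two species per pot. Percent activity was judged by eye roughly 3 weeks later versus untreated plants.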

[33] = system: ECHCG; assay: as above; format: in vivo, Echinochloa crus-galli; conditions: doubly sown pots, dosage 1280 g/ha, visual scoring after about 3 weeks
Procedure, shortened: as §6

[34] = system: AMARE; assay: as above; format: in vivo, Amaranthus retroflexus; conditions: doubly sown pots, dosage 1280 g/ha, visual scoring after about 3 weeks
Procedure, shortened: as §6

[35] = system: MATIN; assay: as above; format: in vivo, Matricaria inodora; conditions: doubly sown pots, dosage 1280 g/ha, visual scoring after about 3 weeks
Procedure, shortened: as §6

[36] = system: STEME; assay: as above; format: in vivo, Stellaria media; conditions: doubly sown pots, dosage 1280 g/ha, visual scoring after about 3 weeks
Procedure, shortened: as §6

C=CCOC(=O)C(C)Oc1nn(-c2cnccn2)c(-c2ccc(F)nc2)c1Br (racemic) [Example I-13]
100%: Post-emergence action against AVEFA in % [2] | Pre-emergence action against ALOMY in % [15] | Pre-emergence action against DIGSA in % [17] | Pre-emergence action against ECHCG in % [18] | Pre-emergence action against SETVI in % [19] | Pre-emergence action against AMARE in % [20] | Pre-emergence action against VIOTR in % [23] | Pre-emergence action against VERPE in % [24] | Pre-emergence action against HORMU in % [25]
90%: Post-emergence action against ALOMY in % ([1]; Dosage 80 g/ha) | Post-emergence action against DIGSA in % ([3]; Dosage 320 g/ha) | Post-emergence action against ECHCG in % ([4]; Dosage 320 g/ha) | Post-emergence action against STEME in % ([11]; Dosage 80 g/ha) | Post-emergence action against VIOTR in % ([12]; dosage 80 g/ha) | Post-emergence action against VERPE in % ([13]; dosage 80 g/ha) | Post-emergence action against HORMU in % ([14]; Dosage 80 g/ha) | Post-emergence action against HORMU in % ([14]; Dosage 320 g/ha) | Pre-emergence action against AVEFA in % [16] | Pre-emergence action against POLCO in % [21] | Pre-emergence action against STEME in % [22]
80%: Post-emergence action against DIGSA in % ([3]; Dosage 80 g/ha) | Post-emergence action against ECHCG in % ([4]; Dosage 80 g/ha) | Post-emergence action against LOLRI in % ([5]; Dosage 80 g/ha) | Post-emergence action against ABUTH in % [6] | Post-emergence action against AMARE in % ([7]; dosage 80 g/ha) | Post-emergence action against MATIN in % ([8]; dosage 320 g/ha) | Post-emergence action against PHBPU in % ([9]; dosage 80 g/ha) | Post-emergence action against POLCO in % ([10]; dosage 80 g/ha)
good herbicidal efficacy: herbicidal efficacy against harmful plants in the case of pre-emergence treatment (in words) [26]

O=C(O)COc1nn(-c2cnccn2)c(-c2cccc(F)c2)c1Br [Example I-04]
100%: Post-emergence action at 1280 g/ha against STEME in % [29] | Pre-emergence action against AMARE in % [20] | Pre-emergence action at 1280 g/ha against POAAN in % [32] | Pre-emergence action at 1280 g/ha against ECHCG in % [33] | Pre-emergence action at 1280 g/ha against AMARE in % [34] | Pre-emergence action at 1280 g/ha against MATIN in % [35] | Pre-emergence action at 1280 g/ha against STEME in % [36]
90%: Post-emergence action against ALOMY in % ([1]; Dosage 320 g/ha) | Post-emergence action against AMARE in % ([7]; dosage 80 g/ha) | Post-emergence action against AMARE in % ([7]; dosage 320 g/ha) | Post-emergence action against MATIN in % ([8]; dosage 320 g/ha) | Post-emergence action against POLCO in % ([10]; dosage 320 g/ha) | Post-emergence action at 1280 g/ha against POAAN in % [27] | Post-emergence action at 1280 g/ha against MATIN in % [28] | Pre-emergence action against DIGSA in % [17] | Pre-emergence action against LOLRI in % [30] | Pre-emergence action against MATIN in % [31] | Pre-emergence action against POLCO in % [21] | Pre-emergence action against STEME in % [22] | Pre-emergence action against VERPE in % [24]
80%: Post-emergence action against LOLRI in % ([5]; Dosage 320 g/ha) | Post-emergence action against MATIN in % ([8]; dosage 80 g/ha) | Post-emergence action against PHBPU in % ([9]; dosage 80 g/ha) | Post-emergence action against PHBPU in % ([9]; dosage 320 g/ha) | Post-emergence action against POLCO in % ([10]; dosage 80 g/ha) | Post-emergence action against STEME in % ([11]; Dosage 320 g/ha) | Post-emergence action against VIOTR in % ([12]; dosage 320 g/ha) | Post-emergence action against VERPE in % ([13]; dosage 320 g/ha) | Pre-emergence action against ALOMY in % [15]

From US20230167088A1, “1-PYRAZINYLPYRAZOLYL-3-OXYALKYL ACIDS AND THEIR DERIVATIVES, AND THEIR USE FOR CONTROL OF UNDESIRED PLANT GROWTH” (BAYER AKTIENGESELLSCHAFT, priority 2020, published 2023)
